The values that follow are results of earlier work, collected in article PMC11291603, “Histidine-based ionizable cationic surfactants: novel biodegradable agents for hydrophilic macromolecular drug delivery” (Drug Delivery and Translational Research, 2024).

The term Aqueous solubility denotes the dissolved amount per volume that the medium holds.

For data set [1] the following is noted: literature value, no reference given.
The conditions of data set [2]: as specified by the manufacturer.

As to `N[C@@H](Cc1c[nH]cn1)C(=O)O` [histidine], in data set [1], the “pKa of the imidazolium ring” value is 6.0-6.1.

As to `CCCCCCCCC(CO)CCCCCC` (centres unmarked) [2-hexyl-1-decanol], in data set [2], the Aqueous solubility was 1 µg/mL.
